Measurements as given in patent publication US10597398B2, “Suppression and regeneration promoting effect of low molecular weight compound on cancer and fibrosis” (NATIONAL UNIVERSITY CORPORATION TOTTORI UNIVERSITY, priority 2015, dated 2020).

How the values were obtained:
Format in all cases: cell-based, human
HuH-7 cells = assay: Growth inhibitory effect on cancer cells (WST assay), Example 2.3; details: for IC50: HuH-7 cells, WST assay, concentrations 0-50 μM, control 0.1% DMSO; for IC50 compared with IC-2: comparison with IC-2
Protocol: HuH-7 cells, a human liver cancer cell line, were cultured on 10-cm cell culture dishes (TPP Techno Plastic Products AG, Trasadingen, Switzerland) by using DMEM under conditions at 5% CO2, 37° C., and 100% humidity. When the cells were 70 to 90% confluent, 200 μL of 0.25% Trypsin/1 mM EDTA solution, which had been prepared by diluting the stock solution 10-fold with PBS (−), was added to detach the cells. Then, the cells were centrifuged at 1000 rpm for 3 min at room temperature. The cells recovered were subcultured at a 1:4 split ratio.
First, 70 to 90% confluent HuH-7 cells were harvested and seeded (n=3) at 5×10^3 cells/well of a 96-well plate (TPP). After 24 h, each compound was added to the cells and the mixture was cultured at 37° C. The concentrations of each compound were 0, 10, 20, 30, 40, and 50 μM. For IC-2-506-1, however, the concentrations used were 0, 10, 20, 25, 30, 40, and 50 μM. Each control sample (0 μM) used was 0.1% DMSO, a solvent for each compound.
Next, 0, 24, 48, and 96 h after the compound treatment, 100 μIL of DMEM-diluted 10% Cell Counting Kit-8 (DOJINDO LABORATORIES, Kumamoto) was added. The mixture was incubated at 37° C. for 60 min and its absorbance (at a measurement wavelength of 450 nm/control wavelength of 600 nm) was measured by using a Sunrise Rainbow RC (Tecan Group Ltd., Mannedorf, Switzerland). Absorbance for the cells alone was calculated by subtracting, from the reading obtained, absorbance for 10% Cell Counting Kit-8 alone.
The “*” in figures indicates a significant difference of p<0.05 between 0.1% DMSO and each compound; and the “**” indicates a significant difference of p<0.01 (the same applies to all the figures in Examples).

Wnt/β-catenin signaling [1] = assay: Inhibitory effect on Wnt/β-catenin signaling in liver cancer cells (HuH7-TCF4 luciferase); details: concentration equal to or lower than that of IC-2
Protocol: A pTCF4-CMVpro-GL4.20 plasmid vector, which had been constructed by inserting 3 copies of TCF4 motifs (CCT TTG ATC) upstream of a CMV promoter into a multiple cloning site of pGL4.20 (Promega Corp., Fitchburg, Wis.), was linearized and stably transfected into the HuH-7 cells. The resulting stable cells (HuH7-TCF4 cells) and HuH-7 cells were likewise cultured.
While each compound was added at concentrations where the growth of HuH-7 cells was reduced to about 50% or less, Wnt/β-catenin signaling activity was measured. The concentrations of the respective compounds were as described in FIG. 40. Control samples used were 0.1% DMSO, a solvent for each compound, and 0.5 μM 5-FU.
First, 70 to 90% confluent HuH7-TCF4 cells were harvested and seeded (n=3) at 5.0×10^4 cells/well of a 24-well plate (TPP). After 24 h, each compound was added to the cells and the mixture was cultured at 37° C.
At 48 h after the compound treatment, the culture medium was discarded, and 100 μL of room temperature 5×Passive Lysis Buffer (PLB) (Promega Corp., Fitchburg, Wis.), which had been diluted 5-fold with MilliQ water, was added to each well. Next, the plate was shaken at room temperature for 15 min and was then frozen at −30° C. overnight. A Luciferase Assay Substrate was diluted with 10 mL of room temperature Luciferase Assay Buffer II to prepare Luciferase Assay Reagent II (LARII) (Promega). The frozen PLB lysate samples were thawed and permeabilized for 15 min. Then, 10 μL aliquots were added to wells of a 96-well white plate (Corning Inc., Corning, N.Y.). While 50 μL aliquots of LARII were each added to each well, luminescence was quantified by using a 1420 multi-label counter ARVO MX (PerkinElmer Singapore Pte Ltd., Singapore) to determine firefly luciferase activity. Note that a significant difference was evaluated by using (two-tailed) Student's t-test. The “*” in figures indicates a significant difference of p<0.05 between 0.1% DMSO and each compound; and the “**” indicates a significant difference of p<0.01 (the same applies to all the figures in Examples).

mesenchymal stem cell = assay: Hepatocyte differentiation-inducing effect, summary statements on Example 4 (readout not specified)
Text: Albumin, a hepatocyte marker, was used as an indicator, and RNA was collected from cells treated with each compound. Next, a hepatocyte differentiation-inducing effect was examined by real-time RT-PCR. The concentrations of the respective compounds were as described in FIG. 35. Each control sample used was 0.1% DMSO, a solvent for each compound.
By using urea synthesis, a hepatocyte function, as an indicator, a hepatocyte differentiation-inducing effect of each compound was investigated.
The cells treated with each compound were subjected to immunofluorescence analysis of albumin, a hepatocyte marker, to investigate a hepatocyte differentiation-inducing effect. The concentrations of the respective compounds were as described in FIG. 37. Each control sample used was 0.1% DMSO, a solvent for each compound.
By using glycogen synthesis, a hepatocyte function, as an indicator, a hepatocyte differentiation-inducing effect of each compound was investigated.

Wnt/β-catenin signaling [2] = assay: Inhibitory effect on Wnt/β-catenin signaling in liver stellate cells (LX-2, TCF4 luciferase); details: concentration equal to or lower than that of IC-2
Protocol: While each compound was added at concentrations where the cell growth of fibrosis-causing liver stellate LX-2 cells was reduced to about 50 to 80%, Wnt/β-catenin signaling activity was measured. […] The concentrations of the respective compounds were as described in FIG. 41. Each control sample used was 0.1% DMSO, a solvent for each compound.
LX-2 cells, which were cultured and maintained by using 10% FBS/DMEM, were harvested and seeded (n=3) in 1% FBS/DMEM at 4.0×10^4 cells per well of a 24-well plate. Next, 25 μL of Opti-MEM (Gibco, Life Technologies Corp., Carlsbad, Calif.) containing 50 ng of pTCF4-CMVpro-GL4.20, having 3 copies of TCF motifs (CCT TTG ATC) upstream of a CMV promoter in a multiple cloning site of pGL4.20 (Promega), and 5 ng of pRL-CMV Vector (Promega) and 25 μL of Opti-MEM containing 0.4 μL of Lipofectamine 2000 (Invitrogen, Life Technologies Corp., Carlsbad, Calif.) were mixed and incubated at room temperature for 20 min. At 20 h after the cell seeding, the mixture was added to each well, so that both reporter plasmids were transiently transfected into the cells. After additional 4 h, 2.5 ng/mL of TGF-β and each compound were added to the cells and the mixture was cultured at 37° C.
At 24 and 48 h after the compound treatment, the culture medium was discarded, and 100 μL of room temperature 5×Passive Lysis Buffer (PLB), which had been diluted 5-fold with MilliQ water, was added to each well. Next, the plate was shaken at room temperature for 15 min and was then frozen at −30° C. overnight. A Luciferase Assay Substrate was diluted with 10 mL of room temperature Luciferase Assay Buffer II to prepare Luciferase Assay Reagent II (LARII). Then, 1 μL of Stop&Glo Substrate was diluted with 49 μL of room temperature Stop&Glo Buffer to prepare Stop&Glo (Promega) in a quantity enough for samples.
The frozen PLB lysate samples were thawed and permeabilized for 15 min. After that, 50 μl aliquots of LARII were dispensed into 3.5 mL test tubes (Sarstedt, AG & Co., Numbrecht, Germany) and 10 μL of each frozen PLB lysate sample was added and mixed well. Subsequently, luminescence was quantified by using a MiniLumat LB 9506 (Berthold Technologies GmbH & Co, Bad Wildbad, Germany) to measure firefly luciferase activity. After the measurement, 50 μL of Stop&Glo was added and mixed well and luminescence was then quantified by using the MiniLumat LB 9506 to determine Renilla luciferase activity. The measurement results were obtained by dividing the firefly luciferase activity by the Renilla luciferase activity.

LX-2 cells = assay: Anti-fibrosis effect, summary statements on Example 3 (marker not specified)
Text: α-Smooth muscle actin (α-SMA), a fibrosis marker, was used as an indicator, and RNA was collected from LX-2 cells treated with each low-molecular-weight compound. Next, an inhibitory effect on fibrosis was examined by real-time RT-PCR.
In addition, instead of α-SMA, another fibrosis marker collagen, type I, alpha 1 (COL1A1) was used as an indicator, and substantially the same protocol was repeated. The concentrations of each compound used were as described in FIG. 34. Each control sample used was 0.1% DMSO, a solvent for each compound. Here, COL1A1 primers used were 5′-CCT CCA GGG CTC CAA CGA G-3′ and 5′-TCAATCACTGTCTTGCCCCA-3′. The annealing was performed at 58° C. for 5 sec. The measurement results were obtained by dividing the calculated value for the COL1A1 gene by the calculated value for the GAPDH gene.

| Structure (SMILES) | IC50 (HuH-7 cells) [µM] | anti-tumor effect compared with IC-2 (HuH-7 cells; at a concentration lower than that of IC-2) | IC50 compared with IC-2 (HuH-7 cells) | inhibitory effect on Wnt/β-catenin signaling pathway in liver cancer cells compared with IC-2 (Wnt/β-catenin signaling [1]) | hepatocyte-inducing effect at low concentration (mesenchymal stem cell; low concentration) | inhibitory effect on Wnt/β-catenin signaling pathway in liver stellate cells compared with IC-2 (Wnt/β-catenin signaling [2]) | anti-fibrosis effect compared with IC-2, lower concentration (LX-2 cells; concentration even lower than that of IC-2) | hepatocyte-inducing effect compared with IC-2 (mesenchymal stem cell; concentration higher than that of IC-2) | anti-fibrosis effect compared with IC-2, equal or higher concentration (LX-2 cells; concentration equal to or higher than that of IC-2) |
| --- | --- | --- | --- | --- | --- | --- | --- | --- | --- |
| O=C1C(Cc2ccccc2)N2C(=O)CCN(C(=O)NCc3ccc(Cl)cc3)C2CN1Cc1cccc2ccccc12 (stereo not drawn) [IC-2-Cl] | 14.4 | more potent anti-tumor effect | lower IC50 than IC-2 | more potent inhibitory effect | exerted a hepatocyte-inducing effect | more potent inhibitory effect | more potent anti-fibrosis effect | – | – |
| O=C1C(Cc2ccccc2)N2C(=O)CCN(C(=O)NCc3ccccc3)C2CN1Cc1ccc(Cl)cc1Cl (stereo not drawn) [IC-2-506-2] | 25.6 | – | lower IC50 than IC-2 | – | – | more potent inhibitory effect | – | more potent hepatocyte-inducing effect | more potent anti-fibrosis effect |
